Inconclusive results are not listed. The source made the active and inactive calls. No rule for the calls is given here.
What follows are compounds tested on C. albicans CaCi-8 + fluconazole, Alamar Blue growth, 48 h (assay: resistant C. albicans growth inhibition with fluconazole, dose response, CaCi-8 strain, Alamar Blue fluorescence (AID 2423)).
`COc1cccc(-n2c(SCc3cc(=O)oc4cc(O)c(O)cc34)nc3ccccc3c2=O)c1` showed an EC50 of 5.67 µM. Work on `CCCCC(=O)NC(c1ccccc1)c1ccc2cccnc2c1O` (stereo not given) yielded an EC50 of 0.752 µM. With `C/C(=N/NC(=O)c1ccccc1O)c1ccc(N2C(=O)C3CCCCC3C2=O)cc1` (stereo not given) the EC50 was > 16 µM (inactive). With `O=C(Cc1ccc(O)cc1)N/N=C/c1cccnc1` the EC50 was > 16 µM (inactive). With `COCCNC(=O)C(c1ccc(C)o1)N(CCOC)C(=O)Cn1nnc2ccccc21` (stereo not given) the EC50 was > 15 µM (inactive). With `CC(c1ccccc1)N1CCn2c(nc3cc(NS(C)(=O)=O)ccc32)C1` (stereo not given) the EC50 was > 16 µM (inactive). With `Cn1c(=O)cc(OCCCC(=O)Nc2cccnc2)c2ccccc21` the EC50 was > 16 µM (inactive). `O=C(CCS(=O)(=O)c1ccccc1)Nc1ncc([N+](=O)[O-])s1` was tested, and the EC50 was > 15 µM (inactive). `Cc1ccc(S(=O)(=O)Nc2ccc(O)c3ncccc23)cc1` showed an EC50 of 3.31 µM. `CC(=O)Nc1cccc(-c2csc(Nc3ccc(C)cn3)n2)c1` was tested, and the EC50 was 2.26 µM. With `Oc1ccc(N=Nc2nccs2)c(O)c1` the EC50 was 7.25 µM. `CCc1ccc(C2c3[nH]c4ccccc4c3CCN2C(=O)c2ccc(=O)n(C)n2)cc1` (stereo not given) was tested, and the EC50 was 0.339 µM. For `CC(C)C(Sc1nc(-c2ccccc2)cc(-c2ccccc2)c1C#N)C(=O)O` (stereo not given), the EC50 was 3.77 µM. For `Cc1ccc(-c2cc(-c3ccc(C)cc3)[n+](C)o2)cc1`, the EC50 was > 16 µM (inactive). `O=c1ccc(N=Nc2ccccc2)ccc1O` was tested, and the EC50 was 0.879 µM. In the case of `CC(=O)Oc1c(-c2ccc(Br)o2)oc2ccccc2c1=O`, the EC50 is reported as 4.2 µM. In the case of `CCn1c(=O)n(CC(=O)N2CCN(c3ccccc3F)CC2)c(=O)c2ccccc21`, the EC50 is reported as > 16 µM (inactive). For `COc1cc(C2C(C#N)=C(N)N(c3ccc(F)cc3)C3=C2S(=O)(=O)CC3)ccc1O` (stereo not given), the EC50 was > 16 µM (inactive). With `CC1CCCCN1S(=O)(=O)c1ccc(NC(=O)c2cccc(-n3cnnn3)c2)cc1` (stereo not given) the EC50 was > 15 µM (inactive). `O=C(NNC(=S)Nc1ccc(Cl)cc1)c1ccccc1OC(F)F` gave an EC50 of 2.6 µM. `O=C(NCC1CCCO1)c1cc2n(n1)C(C(F)(F)F)CC(c1ccc(Br)cc1)N2` (stereo not given) was tested, and the EC50 was 7.57 µM. `O=[N+]([O-])c1cc(S(=O)(=O)C(F)(F)F)ccc1Sc1nc2ccccc2s1` showed an EC50 of 3.2 µM. With `Cc1ccc(Sc2ncccc2C(=O)NCc2cc([N+](=O)[O-])ccc2O)c(C)c1` the EC50 was > 15 µM (inactive). `NC(=S)n1[nH]c(-c2ccc([N+](=O)[O-])cc2)c(N=Nc2cccc([N+](=O)[O-])c2)c1=O` was tested, and the EC50 was 2.83 µM. In the case of `CCCn1nc([N+](=O)[O-])c(C(C#N)c2nc3ccccc3s2)c(Cl)c1=O` (stereo not given), the EC50 is reported as 1.4 µM. For `COc1cccc(/C=N/NC(=O)c2c(C)nc3ccc(Cl)cn23)c1O`, the EC50 was 1.71 µM. Compound `Cc1ccc2ccc3ccc(C)nc3c2n1` has an EC50 of 0.999 µM. Compound `Nc1[nH]c(=O)ncc1F` has an EC50 of 0.711 µM. `O=C(O)c1cnc(-c2ccccc2)nc1Sc1ccc(Cl)cc1` was tested, and the EC50 was > 15 µM (inactive). Compound `O=C(CCl)N1c2ccccc2CCc2ccccc21` has an EC50 of 1.01 µM. With `O=C(COc1ccc2c(c1)CCC2)NCc1cccc(Cl)c1` the EC50 was 10.9 µM. With `CCN1/C(=C\c2ccc3cc(C)ccc3[n+]2CC)Sc2cc(C)c(C)cc21` the EC50 was < 0.12 µM. With `CC(C)(C)NC(=S)N/N=C/c1cc(Br)c(O)c(Br)c1` the EC50 was > 15 µM (inactive). In the case of `CCOC(=O)c1[nH]c2ccc(F)cc2c1NC(=O)c1ccccc1C(=O)O`, the EC50 is reported as > 15 µM (inactive). In the case of `CCN(CC)S(=O)(=O)c1cc(OC)ccc1N=Nc1ccc(O)c2ncccc12`, the EC50 is reported as 1.56 µM. `CC(C)CC(=O)NC(c1cccs1)c1ccc2cccnc2c1O` (stereo not given) showed an EC50 of 0.867 µM. For `Cc1ccc(NCc2ccc(O)c3ncccc23)cc1C`, the EC50 was 13.4 µM. For `Cc1ccc(-c2nc(-c3cccnc3)no2)c(C)c1`, the EC50 was 10.5 µM. With `[O-][N+]1=c2ccc(Nc3ccccc3)cc2=NC12CCCCC2` the EC50 was 0.75 µM. `COCCN1C(=O)C(O)=C(C(=O)c2ccco2)C1c1cccc(Oc2ccccc2)c1` (stereo not given) gave an EC50 of 3.84 µM. With `COc1cccc(NC(=O)c2ccc3nc(C)sc3c2)c1` the EC50 was 1.49 µM. With `O=C(Cn1c2ccc(F)cc2c2nc3n(c(=O)c21)CCS3)N1CCCC1` the EC50 was > 16 µM (inactive). `O=C(Nc1nnc(-c2ccc(F)cc2)o1)c1cccc([N+](=O)[O-])c1` gave an EC50 of 1.01 µM. Work on `CCCCCCOC(=O)C[N+](C)(C)CCOC1CC2CCC1(C)C2(C)C` (stereo not given) yielded an EC50 of 1.16 µM. `Cc1cc(NC(=O)c2ccc([N+](=O)[O-])o2)ccc1NC(=O)c1ccco1` showed an EC50 of 0.338 µM. Compound `Cc1ccc(NC(=O)CNC(=O)c2ccc(Oc3ccccc3)cc2)nc1` has an EC50 of 0.44 µM. Compound `O=c1cc(-c2ccccc2)c2ccc(O)cc2o1` has an EC50 of 3.53 µM. With `S=C(Nc1ccccc1)Nc1nc2ccccc2n1CCOc1ccccc1` the EC50 was 2 µM. For `O=C(O)c1ccc(CN2C(=O)CSC2=S)cc1`, the EC50 was > 15 µM (inactive). In the case of `Cc1cc(C(=O)Nc2nc(-c3ccccn3)cs2)ccc1[N+](=O)[O-]`, the EC50 is reported as 0.96 µM. With `Cc1onc(C(=O)Nc2sc3c(c2C#N)CCCC3)c1[N+](=O)[O-]` the EC50 was 0.989 µM. For `CCCCN(C(=O)/C=C/c1ccco1)c1c(N)n(Cc2ccccc2)c(=O)[nH]c1=O`, the EC50 was > 15 µM (inactive). `O=C(Nc1ccccc1Cl)c1ccc([N+](=O)[O-])o1` showed an EC50 of 0.693 µM. With `Cc1cc(/C=N/n2c(COc3ccccc3C)nc3ccccc3c2=O)c(O)c([N+](=O)[O-])c1` the EC50 was 1.62 µM. For `NCC(c1ccc(Cl)cc1Cl)c1c[nH]c2ccccc12` (stereo not given), the EC50 was > 16 µM (inactive).

Source: PubChem BioAssay AID2423 (Broad Institute, 2010)
